# Assay results from patent US11912707B2 (priority 2016, dated 2024).
# Where two headings read alike, the source gives them in different places.
# Tests used:
# MOR [1] = details: Takayama 2002; Matsumoto 2004; cited from earlier work
# [2] = target: T1, human kappa-opioid receptor (KOR) (Homo sapiens, UniProt P41145); details: Kruegel, A. C. et al. 2016; cited from earlier work
# T1 construct: expressed in transfected cells; host or cells: HEK-293T
# MOR [3] = target: MOR (Homo sapiens, UniProt P35372); details: Kruegel, A. C. et al. 2016; cited from earlier work
# [4] = target: T2, human mu-opioid receptor (MOR) (Homo sapiens, UniProt P35372); details: Kruegel, A. C. et al. 2016; cited from earlier work
# T2 construct: expressed in transfected cells; host or cells: HEK-293T
# [5] = target: T1, human kappa-opioid receptor (KOR); assay: BRET assay measuring G protein activation, antagonist competition vs U-50,488, human KOR; type: cell-based; details: for Inhibition of the agonist activity of U-50,488 at human KOR: concentration of agonist = 320 nM, FIG. 1
# Experimental: (§1) Human MOR, KOR, or DOR cDNA was transfected alongside GαoB with RLuc8 inserted at position 91 (GαoB-RLuc8), Gβ1 (β1), and Gγ2 fused to the full-length mVenus at its N terminus (mVenus-γ2) (2.5 μg MOR/DOR/KOR, 0.125 μg GαoB-RLuc8, 6.25 μg β1; 6.25 μg mVenus-γ2) into HEK-293T cells (5×10^6 cells/plate) in 10-cm dishes using PEI (Polysciences Inc.; Warrington, PA) in a 1:1 ratio diluted in Opti-MEM (Life Technologies Corp.; Grand Island, NY) to assay for G protein activation as described previously.^2,3 Cells were maintained in Dulbecco's Modified Eagle Medium (high glucose #11965; Life Technologies) supplemented with 10% FBS (Premium Select, Atlanta Biologicals; Atlanta, GA) and 100 U/mL penicillin and 100 μg/mL streptomycin (#15140, Life Technologies). After 24 hours the media was changed, and the experiment was performed 24 hours later (48 hours after transfection).
# (§2) Transfected cells were dissociated and resuspended in phosphate-buffered saline (PBS). Approximately 200,000 cells/well were added to a black-framed, white well 96-well plate (#60050; Perkin Elmer; Waltham, MA). The microplate was centrifuged and the cells were resuspended in phosphate-buffered saline (PBS). For agonist experiments, after 5 minutes, 5 μM of the luciferase substrate coelenterazine H was added to each well. After 5 minutes, ligands were added and the BRET signal was measured at 5 minutes on a PHERAstar FS plate reader. For antagonist competition experiments, cells were preincubated with the antagonist at varying concentrations for 30 minutes. Coelenterazine H (5 μM) was then added to each well for 5 minutes. […] The BRET signal was quantified by calculating the ratio of the light emitted by the energy acceptor, mVenus (510-540 nm), over the light emitted by the energy donor, RLuc8 (485 nm). This drug-induced BRET signal was normalized using the Emax of [D-Ala2, N-Me-Phe4, Gly5-ol]-enkephalin (DAMGO), U-50,488, or [D-Pen(2,5)]enkephalin (DPDPE) as the maximal response at MOR, KOR, and DOR respectively. Dose response curves were fit using a three-parameter logistic equation in GraphPad Prism 6.
# [6] = Stability in human liver microsomes; type: in vitro ADME; details: pH 7.4, 2 μM test compound, 0.42 mg/mL microsomal protein, 37° C., NADPH, read-out: t1/2 in human liver microsomes
# Experimental: Microsomal incubations were carried out in 96-well plates in 5 aliquots of 40 μL each (one for each time point). Liver microsomal incubation medium contained PBS (100 mM, pH 7.4), MgCl2 (3.3 mM), NADPH (3 mM), glucose-6 phosphate (5.3 mM), and glucose-6-phosphate dehydrogenase (0.67 units/ml) with 0.42 mg of liver microsomal protein per mL. Control incubations were performed replacing the NADPH-cofactor system with PBS. Test compound (2 μM, final solvent concentration 1.6%) was incubated with microsomes at 37° C., shaking at 100 rpm. Incubations were performed in duplicates. Five time points over 40 minutes were analyzed. The reactions were stopped by adding 12 volumes of 90% acetonitrile-water to incubation aliquots, followed by protein sedimentation by centrifuging at 5500 rpm for 3 minutes. Supernatants were analyzed for remaining test compound using an HPLC system coupled with a tandem mass spectrometer.
# [7] = target: T2, human mu-opioid receptor (MOR); assay: BRET assay measuring G protein activation, agonist mode, human MOR; type: cell-based
# Experimental: as §1, §2
# [8] = target: T3, human delta-opioid receptor (DOR) (Homo sapiens, UniProt P41143); assay: BRET assay measuring G protein activation, antagonist competition vs DPDPE, human DOR; type: cell-based; details: for Extent of antagonism at Human DOR: competing agonist DPDPE (50 nM)
# T3 construct: expressed in transfected cells; host or cells: HEK-293T
# Experimental: as §1, §2
# [9] = inhibition of reference agonist U-50,488 at 5x its EC50 (320 nM), read-out: Antagonist IC50, Human KOR
# [10] = read-out: Antagonist IC50, Human DOR
structure (smiles),measurement,setting,value
"CC[C@@H]1CN2CCc3c([nH]c4cccc(OC)c34)[C@@H]2C[C@@H]1/C(=C\OC)C(=O)OC [mitragynine, Mitragynine]",binding affinities for the MOR,MOR [1],nanomolar
same,Type of activity at KOR,[2],competitive kappa-opioid receptor (KOR) antagonists
same,beta-arrestin recruitment at MOR,MOR [3],failing to recruit beta-arrestin
same,Type of activity at MOR,[4],partial MOR agonists
same,Ki,"[5]; Schild analysis, read-out: Schild pA2 (an estimate of Ki), Human KOR (converted)",1.4 µM
same,"Inhibition of the agonist activity of U-50,488 at human KOR",[5],fully inhibit
same,IC50,[5]; [9],8.5 µM
same,half-life at 2 μM,[6],0.447 h
same,"Emax, Human MOR",[7]; normalized to Emax of DAMGO,34%
same,Extent of antagonism at Human DOR,[8],partial
same,IC50,[8]; [10],> 50 µM
"[2H]CO/C=C(/C(=O)OC([2H])([2H])[2H])[C@H]1C[C@H]2C3=Nc4cccc(OC([2H])([2H])[2H])c4[C@@]3(O)CCN2C[C@H]1CC [Compound 19, Methyl-d3 (E)-2-((2S,3S,7aS,12bS)-3-ethyl-7a-hydroxy-8-(methoxy-d3)-1,2,3,4,6,7,7a,12b-octahydroindolo[2,3-a]quinolizin-2-yl)-3-(methoxy-d)acrylate]",half-life at 2 μM,[6],6.57 h
"CC[C@@H]1CN2CC[C@@]3(O)C(=Nc4cccc(OC)c43)[C@@H]2C[C@@H]1/C(=C\OC)C(=O)OC [7-hydroxymitragynine, 7-Hydroxymitragynine]",binding affinities for the MOR,MOR [1],nanomolar
same,Type of activity at KOR,[2],competitive kappa-opioid receptor (KOR) antagonists
same,beta-arrestin recruitment at MOR,MOR [3],failing to recruit beta-arrestin
same,Type of activity at MOR,[4],partial MOR agonists
same,IC50,[5],7.9 µM
same,Ki,[5],0.49 µM
same,"Inhibition of the agonist activity of U-50,488 at human KOR",[5],fully inhibit
same,half-life at 2 μM,[6],4.38 h
same,Emax,[7]; normalized to Emax of DAMGO,60%
same,IC50,[8],15.6 µM
"[2H]C([2H])([2H])O/C=C(/C(=O)OC([2H])([2H])[2H])[C@H]1C[C@H]2c3[nH]c4cccc(OC([2H])([2H])[2H])c4c3CCN2C[C@H]1CC [Compound 18, Methyl-d3 (E)-2-((2S,3S,12bS)-3-ethyl-8-(methoxy-d3)-1,2,3,4,6,7,12,12b-octahydroindolo[2,3-a]quinolizin-2-yl)-3-(methoxy-d3)acrylate]",half-life at 2 μM,[6],0.585 h
"CC[C@@H]1CN2CC[C@@]3(O)C(=Nc4cccc(OC)c43)[C@@H]2C[C@@H]1/C(=C/OC)C(=O)OC [(Z)-7-hydroxymitragynine, methyl (Z)-2-((2S,3S,7aS,12bS)-3-ethyl-7a-hydroxy-8-methoxy-1,2,3,4,6,7,7a,12b-octahydroindolo[2,3-a]quinolizin-2-yl)-3-methoxyacrylate]",IC50,[5],> 50 µM
same,Emax,[7]; normalized to Emax of DAMGO,64%
same,IC50,[8],> 50 µM
"CC[C@@H]1CN2CCc3c([nH]c4cccc(OC)c34)[C@@H]2C[C@@H]1/C(=C/OC)C(=O)OC [(Z)-mitragynine, methyl (Z)-2-((2S,3S,12bS)-3-ethyl-8-methoxy-1,2,3,4,6,7,12,12b-octahydroindolo[2,3-a]quinolizin-2-yl)-3-methoxyacrylate]",IC50,[5]; [9],42 µM
same,Extent of antagonism at Human DOR,[8],partial
same,IC50,[8]; [10],> 100 µM
"CC[C@@H]1CN2CC[C@]3(Nc4cccc(OC)c4C3=O)[C@@H]2C[C@@H]1/C(=C\OC)C(=O)OC [mitragynine pseudoindoxyl, methyl (E)-2-((2S,6′S,7′S,8a′S)-6′-ethyl-4-methoxy-3-oxo-2′,3′,6′,7′,8′,8a′-hexahydro-5′H-spiro[indoline-2,1′-indolizin]-7′-yl)-3-methoxyacrylate]",Type of activity at KOR,[2],competitive kappa-opioid receptor (KOR) antagonists
same,beta-arrestin recruitment at MOR,MOR [3],failing to recruit beta-arrestin
same,Type of activity at MOR,[4],partial MOR agonists
same,IC50,[5],4.8 µM
same,"Inhibition of the agonist activity of U-50,488 at human KOR",[5],fully inhibit
same,EC50,[7],0.0145 µM
same,Emax,[7]; normalized to Emax of DAMGO,52%
same,IC50,[8],0.609 µM
